Measured values as given in patent US20250215039A1, “NUCLEOSIDES FOR TREATING CANCER” (PRIMEFOUR THERAPEUTICS, INC., priority 2022, published 2025).
Where two headings read alike, the source gives them in different places.

Test system: cancer cell lines
Test: Cancer cell proliferation activity (CellTiterGlo, 72 h)
Assay type: cell-based
Details: 72 h, 72 h, read-out: IC50 cell proliferation
Description: Dose response relationships on cell proliferation was assessed for representative Compounds of the Disclosure on cancer cell lines. Briefly, compound treatment of cells started one day after seeding with a final DMSO concentration of 0.1%, and was performed by nanodrop-dispensing using a Tecan Dispenser. 0.1% DMSO (solvent) and Staurosporine (10 μM) served as high control (100% viability) and low control (0% viability), respectively.
Cells were cultured in the appropriate media. For the assays, cells were seeded in white cell culture-treated flat and clear bottom multiwell plates and incubated at 37° C. overnight before compound was added. After incubation for 72 h at 37° C. at 5% or 10% CO2 dependent on the medium, cell plates were equilibrated to room temperature for one hour, CellTiterGlo reagent (Promega) was added and luminescence was measured approximately an hour later using a luminometer.
Raw data were converted into percent cell viability relative to the high and low control, which were set to 100% and 0%, respectively.
The IC50 values are summarized in Tables 9A-1, Table 10A, and Table 10B.

[1] = Homo sapiens, A204, 72 h, A204 (muscle)
[2] = Homo sapiens, ACHN, ACHN (kidney)
[3] = Homo sapiens, ASPC1, 72 h, ASPC1 (pancreas)
[4] = Homo sapiens, BXPC-3, 72 h, BXPC3 (pancreas)
[5] = Homo sapiens, Caco-2, 72 h, CACO2 (colon)
[6] = Homo sapiens, Granta-519, 72 h, GRANTA-519 (hematological)
[7] = Homo sapiens, Kasumi 1, 72 h, KASUMI-1 (hematological)
[8] = Homo sapiens, LoVo, LOVO (colon)
[9] = Homo sapiens, MDA-MB-231, 72 h, MDAMB231 (breast)
[10] = Homo sapiens, MDA-MB-436, 72 h, MDAMB436 (breast)
[11] = Homo sapiens, MINO, MINO (hematological)
[12] = Homo sapiens, SK-BR-3, 72 h, SKBR3 (breast)

Structure (SMILES) | IC50 (5637 (bladder)) | IC50 [1] | IC50 [2] | IC50 [3] | IC50 [4] | IC50 [5] | IC50 [6] | IC50 [7] | IC50 [8] | IC50 [9] | IC50 [10] | IC50 [11] | IC50 [12] | IC50 (NCI-H358M, NCIH358M (lung))
Nc1nc(F)nc2c1ncn2[C@H]1C[C@H](O)[C@](CO)(C2CC2)O1 [Cpd. No. 5, (2R,3S,5R)-5-(6-amino-2-fluoro-9H-purin-9-yl)-2-cyclopropyl-2-(hydroxymethyl)tetrahydrofuran-3-ol] | 4930 nM | 2320 nM | 3670 nM | 2620 nM | > 50000 nM | 7850 nM | > 50000 nM | 1400 nM | 2750 nM | > 50000 nM | 2900 nM | 1750 nM | 1060 nM | 1980 nM
N#C[C@]1(CO)O[C@@H](n2cc(F)c(=O)[nH]c2=O)C[C@@H]1O [Cpd. No. 107, (2R,3S,5R)-5-(5-fluoro-2,4-dioxo-3,4-dihydropyrimidin-1(2H)-yl)-3-hydroxy-2-(hydroxymethyl)tetrahydrofuran-2-carbonitrile] | 2220 nM | > 50000 nM | 3840 nM | 1580 nM | 1000 nM | > 50000 nM | 1860 nM | > 50000 nM | > 50000 nM | > 50000 nM | > 50000 nM | 2340 nM | 970 nM | > 50000 nM
C[C@]1(CO)O[C@@H](n2cnc3c(O)nc(N)nc32)C[C@@H]1O [Cpd. No. 115, 2-amino-9-((2R,4S,5R)-4-hydroxy-5-(hydroxymethyl)-5-methyltetrahydrofuran-2-yl)-9H-purin-6-ol] | 7010 nM | 630 nM | 2810 nM | > 50000 nM | > 50000 nM | > 50000 nM | 2220 nM | 2130 nM | > 50000 nM | 3400 nM | 4090 nM | 1720 nM | 3450 nM | 1070 nM
Nc1nc(F)nc2c1ncn2[C@H]1C[C@H](O)[C@](CO)(CC2CC2)O1 [Cpd. No. 130, (2R,3S,5R)-5-(6-amino-2-fluoro-9H-purin-9-yl)-2-(cyclopropylmethyl)-2-(hydroxymethyl)tetrahydrofuran-3-ol] | 2060 nM | 1710 nM | 3830 nM | 620 nM | 3280 nM | 1500 nM | 5220 nM | 210 nM | 490 nM | > 50000 nM | 530 nM | 300 nM | 120 nM | 930 nM
O=c1[nH]c(=O)n([C@H]2C[C@H](O)[C@@H](CO)O2)cc1F [compound 185, 5-fluoro-1-((2R,4S,5R)-4-hydroxy-5-(hydroxymethyl)tetrahydrofuran-2-yl)pyrimidine-2,4(1H,3H)-dione] | 1 nM | 77 nM | 4 nM | 5 nM | 2 nM | 116 nM | 2 nM | 24 nM | 7 nM | 76 nM | 6 nM | 4 nM | 1 nM | 12 nM

Second part, the molecule after the results:

IC50 (5637 (bladder)) | IC50 [1] | IC50 [2] | IC50 [3] | IC50 [4] | IC50 [5] | IC50 [6] | IC50 [7] | IC50 [8] | IC50 [9] | IC50 [10] | IC50 [11] | IC50 [12] | IC50 (NCI-H358M, NCIH358M (lung)) | Structure (SMILES)
10 nM | 4020 nM | 1260 nM | 2930 nM | 500 nM | 3280 nM | 920 nM | 1690 nM | 2540 nM | 400 nM | 3490 nM | 370 nM | 980 nM | 10 nM | C#C[C@]1(CO)O[C@@H](n2cc(Cl)c(N)nc2=O)C[C@@H]1O [Cpd. No. 109, 4-amino-5-chloro-1-((2R,4S,5R)-5-ethynyl-4-hydroxy-5-(hydroxymethyl)tetrahydrofuran-2-yl)pyrimidin-2(1H)-one]
> 50000 nM | 1830 nM | > 50000 nM | > 50000 nM | > 50000 nM | > 50000 nM | 1400 nM | 1460 nM | > 50000 nM | 6280 nM | > 50000 nM | 2700 nM | > 50000 nM | 2960 nM | CC[C@]1(CO)O[C@@H](n2cnc3c(O)nc(N)nc32)C[C@@H]1O [Cpd. No. 223, 2-amino-9-((2R,4S,5R)-5-ethyl-4-hydroxy-5-(hydroxymethyl)tetrahydrofuran-2-yl)-9H-purin-6-ol]
3900 nM | 1350 nM | > 50000 nM | 4620 nM | > 50000 nM | > 50000 nM | 4440 nM | 1630 nM | > 50000 nM | 1690 nM | 3850 nM | 2540 nM | > 50000 nM | 1590 nM | C#C[C@]1(CO)O[C@@H](n2cnc3c(=O)[nH]c(N)nc32)[C@H](F)[C@@H]1O [compound 95, 2-amino-9-((2R,3R,4R,5R)-5-ethynyl-3-fluoro-4-hydroxy-5-(hydroxymethyl)tetrahydrofuran-2-yl)-1,9-dihydro-6H-purin-6-one]
